pIC50: −log10 of the molar value. Converted amounts (≈) assume the structure as drawn. Read-outs that look alike come from different tables or passages of the source.
What was measured:
[1] = target: RNA-pol S. aureus (Staphylococcus aureus, UniProt P47768+Q2G0N5); test: RNA polymerase inhibition assay (S. aureus enzyme); format: biochemical; settings: for IC50: Table 2, read-out: RNA-pol IC50 (μM) S. aureus
[2] = system: S. aureus; test: MIC determination, S. aureus; format: cell-based; settings: Staphylococcus aureus
Procedure: The compound is added and two-fold dilutions are made. The final volume in the 96-well plate is about 100 uL. The plate is incubated at 37° C. in the dark with shaking. After 16 hours of incubation, growth is monitored by reading A600 or by visual inspection. […] Methods for dilution antimicrobial susceptibility tests for bacteria that grow aerobically. Approved standard M7-A3; National Committee for Clinical Laboratory Standards: Villanova, Pa.

[3] = system: E. coli (tolC); test: MIC determination, E. coli (tolC); format: cell-based; settings: Escherichia coli
Procedure: (§1) For MIC determinations for selected bacteria, log phase growing bacteria are re-suspended at 1×10^5 bacteria per mL in LB medium. The compound is added and two-fold dilutions are made. The final volume in the 96-well plate is about 100 uL. The plate is incubated at 37° C. in the dark with shaking. After 16 hours of incubation, growth is monitored by reading A600 or by visual inspection. MIC is defined as the minimum concentration of drug resulting in inhibition of visible growth of bacterial under the conditions described (above) in National Committee for Clinical Laboratory Standards 1993. Methods for dilution antimicrobial susceptibility tests for bacteria that grow aerobically. Approved standard M7-A3; National Committee for Clinical Laboratory Standards: Villanova, Pa.

[4] = target: T1, Sigma^70 saturated E. coli RNA Polymerase (Escherichia coli, UniProt P0A8T7+P0A8V2); test: RNA polymerase inhibition assay (E. coli enzyme); format: biochemical; settings: for pIC50: Table 1, enzyme not named, method uses E. coli RNA polymerase, read-out: IC50; for IC50: Table 2, read-out: RNA-pol IC50 (μM) E. coli
T1 construct: purchased Epicenter
T1 sequence (P0A8V2 whole entry): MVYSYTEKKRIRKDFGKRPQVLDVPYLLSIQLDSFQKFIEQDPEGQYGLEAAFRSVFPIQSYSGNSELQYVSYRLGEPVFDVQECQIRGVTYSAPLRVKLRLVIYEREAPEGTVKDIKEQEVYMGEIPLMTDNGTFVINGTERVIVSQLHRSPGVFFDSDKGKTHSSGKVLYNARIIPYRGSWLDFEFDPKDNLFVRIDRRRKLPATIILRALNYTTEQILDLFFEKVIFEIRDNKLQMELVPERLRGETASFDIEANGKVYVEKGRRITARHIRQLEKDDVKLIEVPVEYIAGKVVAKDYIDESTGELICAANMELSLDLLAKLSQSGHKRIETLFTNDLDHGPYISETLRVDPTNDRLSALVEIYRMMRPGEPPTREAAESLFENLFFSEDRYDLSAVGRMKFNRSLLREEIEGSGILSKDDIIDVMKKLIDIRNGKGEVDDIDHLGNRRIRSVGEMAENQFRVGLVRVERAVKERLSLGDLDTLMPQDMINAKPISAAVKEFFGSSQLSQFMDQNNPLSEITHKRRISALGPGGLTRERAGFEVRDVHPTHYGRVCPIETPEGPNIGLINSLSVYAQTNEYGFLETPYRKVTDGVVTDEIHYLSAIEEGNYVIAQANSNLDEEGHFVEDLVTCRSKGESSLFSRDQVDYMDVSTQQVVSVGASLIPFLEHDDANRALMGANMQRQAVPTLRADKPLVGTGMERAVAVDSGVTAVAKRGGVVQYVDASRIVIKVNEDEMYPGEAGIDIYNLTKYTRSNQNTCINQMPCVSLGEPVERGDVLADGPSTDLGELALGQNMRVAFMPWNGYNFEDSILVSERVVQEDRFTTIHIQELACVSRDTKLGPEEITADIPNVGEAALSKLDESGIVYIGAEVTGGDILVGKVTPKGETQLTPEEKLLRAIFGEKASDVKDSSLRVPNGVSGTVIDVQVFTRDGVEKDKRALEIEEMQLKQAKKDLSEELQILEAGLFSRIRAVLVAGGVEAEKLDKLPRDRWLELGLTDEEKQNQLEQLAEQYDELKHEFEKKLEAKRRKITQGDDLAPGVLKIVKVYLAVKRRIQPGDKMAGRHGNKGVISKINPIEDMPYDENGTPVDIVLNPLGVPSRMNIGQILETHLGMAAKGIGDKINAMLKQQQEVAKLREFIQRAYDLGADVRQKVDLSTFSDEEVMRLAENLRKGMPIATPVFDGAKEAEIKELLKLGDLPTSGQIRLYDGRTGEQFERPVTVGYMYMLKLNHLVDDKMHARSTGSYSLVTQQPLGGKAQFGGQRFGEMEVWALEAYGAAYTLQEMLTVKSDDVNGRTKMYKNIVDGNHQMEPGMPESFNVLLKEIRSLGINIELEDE
T1 sequence (P0A8T7 whole entry): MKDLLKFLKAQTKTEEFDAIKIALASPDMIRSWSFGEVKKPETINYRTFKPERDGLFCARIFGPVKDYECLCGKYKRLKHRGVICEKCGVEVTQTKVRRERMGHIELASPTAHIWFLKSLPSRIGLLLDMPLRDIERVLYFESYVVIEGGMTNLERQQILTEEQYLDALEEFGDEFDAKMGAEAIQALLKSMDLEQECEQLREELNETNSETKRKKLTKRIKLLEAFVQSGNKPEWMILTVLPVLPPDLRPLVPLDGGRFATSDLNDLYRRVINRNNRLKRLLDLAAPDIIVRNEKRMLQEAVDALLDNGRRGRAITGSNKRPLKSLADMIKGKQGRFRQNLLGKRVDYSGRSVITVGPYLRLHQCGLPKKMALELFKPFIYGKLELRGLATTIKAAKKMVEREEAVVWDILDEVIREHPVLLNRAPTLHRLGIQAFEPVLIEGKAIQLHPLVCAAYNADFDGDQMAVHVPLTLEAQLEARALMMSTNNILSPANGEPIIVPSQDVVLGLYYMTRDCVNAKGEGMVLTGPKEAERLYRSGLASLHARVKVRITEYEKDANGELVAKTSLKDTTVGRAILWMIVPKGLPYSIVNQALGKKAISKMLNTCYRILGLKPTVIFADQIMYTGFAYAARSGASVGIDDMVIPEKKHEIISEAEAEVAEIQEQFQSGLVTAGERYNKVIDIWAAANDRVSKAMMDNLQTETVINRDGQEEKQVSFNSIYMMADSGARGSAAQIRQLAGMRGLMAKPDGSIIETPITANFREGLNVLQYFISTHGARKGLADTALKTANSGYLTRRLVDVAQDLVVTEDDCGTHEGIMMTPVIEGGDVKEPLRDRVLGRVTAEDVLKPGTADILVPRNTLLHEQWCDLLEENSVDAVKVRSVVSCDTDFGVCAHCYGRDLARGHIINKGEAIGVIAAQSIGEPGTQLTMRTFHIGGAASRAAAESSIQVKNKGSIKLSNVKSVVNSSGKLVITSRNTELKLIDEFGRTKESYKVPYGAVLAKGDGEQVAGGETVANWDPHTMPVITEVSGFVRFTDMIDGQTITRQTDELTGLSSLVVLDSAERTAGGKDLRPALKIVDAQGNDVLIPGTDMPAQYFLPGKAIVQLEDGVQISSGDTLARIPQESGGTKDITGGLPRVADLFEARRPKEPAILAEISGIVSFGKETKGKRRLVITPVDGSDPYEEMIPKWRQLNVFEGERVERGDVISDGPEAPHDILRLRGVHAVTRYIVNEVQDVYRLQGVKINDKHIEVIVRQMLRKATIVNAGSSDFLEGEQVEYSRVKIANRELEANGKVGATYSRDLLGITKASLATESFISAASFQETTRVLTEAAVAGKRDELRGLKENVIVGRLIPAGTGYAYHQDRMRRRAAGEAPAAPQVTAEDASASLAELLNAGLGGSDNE
T1 sequence (P0A7Z4 whole entry partner): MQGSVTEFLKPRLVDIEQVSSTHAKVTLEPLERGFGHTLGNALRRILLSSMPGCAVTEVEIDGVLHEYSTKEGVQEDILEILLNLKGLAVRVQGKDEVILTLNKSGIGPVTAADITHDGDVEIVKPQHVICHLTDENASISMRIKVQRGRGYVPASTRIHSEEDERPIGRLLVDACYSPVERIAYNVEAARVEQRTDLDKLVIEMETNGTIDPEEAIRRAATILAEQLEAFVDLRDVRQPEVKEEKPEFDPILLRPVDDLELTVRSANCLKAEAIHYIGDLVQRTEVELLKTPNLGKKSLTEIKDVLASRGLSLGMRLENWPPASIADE
T1 sequence (P0A800 whole entry partner): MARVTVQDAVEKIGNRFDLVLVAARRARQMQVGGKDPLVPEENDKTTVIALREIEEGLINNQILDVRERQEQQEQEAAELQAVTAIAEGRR
T1 sequence (P00579 whole entry partner): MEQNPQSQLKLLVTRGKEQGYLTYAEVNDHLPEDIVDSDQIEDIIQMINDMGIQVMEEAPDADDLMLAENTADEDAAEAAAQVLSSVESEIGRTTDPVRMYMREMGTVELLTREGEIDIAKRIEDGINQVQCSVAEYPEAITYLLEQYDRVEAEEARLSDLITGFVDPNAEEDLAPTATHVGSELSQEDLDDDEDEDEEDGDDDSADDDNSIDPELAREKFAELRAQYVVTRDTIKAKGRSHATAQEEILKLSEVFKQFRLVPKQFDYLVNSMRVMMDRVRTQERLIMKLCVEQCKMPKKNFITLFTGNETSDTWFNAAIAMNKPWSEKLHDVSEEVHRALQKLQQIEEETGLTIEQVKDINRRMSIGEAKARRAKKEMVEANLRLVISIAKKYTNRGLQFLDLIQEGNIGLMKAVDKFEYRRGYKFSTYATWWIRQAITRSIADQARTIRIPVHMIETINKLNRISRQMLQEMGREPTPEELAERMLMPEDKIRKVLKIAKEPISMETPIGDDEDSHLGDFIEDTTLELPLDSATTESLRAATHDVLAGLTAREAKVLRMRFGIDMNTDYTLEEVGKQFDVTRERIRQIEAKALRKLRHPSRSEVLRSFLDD
Procedure: The compounds of the present invention can be evaluated for antibacterial activity in a variety of assay formats known to those of skill in art. The specific assays used to select the most appropriate compound for use will typically depend on the targeted bacteria or infection. One common assay involves evaluation of the compounds as RNA polymerase inhibitors. In this assay, buffer (250 mM KCl, 5% Glycerol, 10 mM MgCl2, 0.1 mg/ml BSA) is combined with 6 mM B-M.E., PT5 DNA template, and 1.3 ug/rxn Sigma^70 saturated E. coli RNA Polymerase (Epicenter). The compound is then added in a manner not to exceed 5% DMSO. Nucleotide triphosphates are then added at the following concentration: 250 uM ATP, […] and UTP with 100 uM cold CTP and 50 uM alpha ^32P CTP. The mixture is incubated for 10 min at about 37° C. A [2×] loading buffer is added and the mixture is then run on a 6% urea denaturing PAGE until bromophenol blue reaches the edge of plate. The gel is soaked (about 20 minutes in 10% MeOH and 10% acetic acid, to remove urea), then dried (about 55 minutes at about 85° C. (BioRad Gel Drier)) and exposed to a Phospho Imaging Plate for 1 hour. The plate is then read on a Fujix Bas1000 Imaging System and quantified using MacBas v2.0 software. An IC50 (in uM) can be calculated as the concentration of a drug which reduces the enzyme activity to 50% of the control.

[5] = system: B. su; test: MIC determination, B. su; format: cell-based; settings: Table 1, 16 hours at 37° C. in LB medium, read-out: B. su (bacterial MIC)
Procedure: as §1

[6] = Table 2, read-out: MIC (μM) S. aureus
[7] = read-out: MIC (μM) E. coli (tolC)
[8] = Table 1, MIC, 16 hours at 37° C. in LB medium, read-out: S. au (bacterial MIC)
[9] = 16 h, read-out: E. c(tolC) (bacterial MIC)

SMILES	IC50 [1] [µM]	MIC [2, 6] [µM]	MIC [3, 7] [µM]	further results
O=C(COc1ccc(Cl)cc1)Nc1cc(NC(=O)Nc2ccc(Cl)c(C(F)(F)F)c2)cc(C(F)(F)F)c1 [Compound 121]	> 50	< 40	> 125	–
ON=C(Nc1ccccc1)c1cc(C(F)(F)F)cc(C(F)(F)F)c1 [R′=3-CF3, R″=5-CF3, R′″=H]	–	–	–	pIC50 [4]: < 4.30; MIC [5]: 40 to 125 µM (≈ 13.9 to 43.5 µg/mL); MIC [2, 8]: 40 to 125 µM (≈ 13.9 to 43.5 µg/mL); MIC [3, 9]: < 40 µM
COCOc1cc(NC(=O)Nc2ccc(Cl)c(C(F)(F)F)c2)cc(C(F)(F)F)c1 [Compound 132, 1-(4-Chloro-3-trifluoromethyl-phenyl)-3-(3-methoxymethoxy-5-trifluoromethyl-phenyl)-urea]	10 to 50	< 40	< 40	–
ON=C(Nc1cccc(Cl)c1)c1ccc(NCCN2CCNCC2)c(C(F)(F)F)c1 [Compound 112]	–	> 125	< 40	IC50 [4]: 10 to 50 µM; pIC50 [1]: < 4.30
ON=C1CCN(c2ccc(C(=NO)Nc3cccc(Cl)c3)cc2C(F)(F)F)C1 [Compound 109]	–	< 40	< 40	IC50 [4]: 10 to 50 µM; pIC50 [1]: < 4.30
O=C(Nc1cc(N2CCCC2)cc(C(F)(F)F)c1)Nc1ccc(Cl)c(C(F)(F)F)c1 [Compound 123]	< 10	< 40	> 125	–
O=C(Nc1ccc(Cl)c(C(F)(F)F)c1)OCc1cc(-n2cccc2)cc(C(F)(F)F)c1 [Compound 137]	10 to 50	< 40	< 40	–
ON=C(Nc1cccc(Br)c1)c1cccc(C(F)(F)F)c1 [R′=3-CF3, R″=H, R′″=3-Br]	–	–	–	pIC50 [4]: 4.30 to 5.00; MIC [5]: < 40 µM; MIC [2, 8]: 40 to 125 µM (≈ 14.4 to 44.9 µg/mL); MIC [3, 9]: < 40 µM
Nc1cc(/C(=N/O)Nc2cccc(Cl)c2)cc(C(F)(F)F)c1F [Compound 116]	> 50	< 40	< 40	IC50 [4]: < 10 µM
[N-]=[N+]=Nc1cc(/C(=N/O)Nc2cccc(Cl)c2)cc(C(F)(F)F)c1F [Compound 115]	> 50	< 40	< 40	IC50 [4]: > 50 µM
ON=C(Nc1cccc(F)c1)c1cccc(C(F)(F)F)c1 [R′=3-CF3, R″=H, R′″=3-F]	–	–	–	pIC50 [4]: 4.30 to 5.00; MIC [5]: 40 to 125 µM (≈ 11.9 to 37.3 µg/mL); MIC [2, 8]: 40 to 125 µM (≈ 11.9 to 37.3 µg/mL); MIC [3, 9]: < 40 µM
ON=C(Nc1ccccc1)c1ccc(Cl)c(C(F)(F)F)c1 [Example 65]	–	–	–	pIC50 [4]: > 5.00; MIC [5]: 40 to 125 µM (≈ 12.6 to 39.3 µg/mL); MIC [2, 8]: < 40 µM; MIC [3, 9]: < 40 µM
O=C(CNc1ccc(Cl)c(C(F)(F)F)c1)Nc1cc(NC(=O)COc2ccc(Cl)cc2)cc(C(F)(F)F)c1 [Compound 130]	> 50	< 40	> 125	–
O=C(Nc1cc(N2CCOCC2)cc(C(F)(F)F)c1)Nc1ccc(Cl)c(C(F)(F)F)c1 [Compound 125]	10 to 50	< 40	< 40	–
O=[N+]([O-])c1cc(C(=NO)Nc2ccccc2)ccc1Cl [Example 15]	–	–	–	pIC50 [4]: 4.30 to 5.00; MIC [5]: > 125 µM; MIC [2, 8]: > 125 µM; MIC [3, 9]: > 125 µM
ON=C(Nc1cccc(Cl)c1)c1ccc(Cl)cc1 [R′=4-Cl, R″=H, R′″=3-Cl]	–	–	–	pIC50 [4]: < 4.30; MIC [5]: 40 to 125 µM (≈ 11.2 to 35.1 µg/mL); MIC [2, 8]: 40 to 125 µM (≈ 11.2 to 35.1 µg/mL); MIC [3, 9]: < 40 µM
C=CCOC(=O)Nc1cc(NC(=O)Nc2ccc(Cl)c(C(F)(F)F)c2)cc(C(F)(F)F)c1 [Compound 119]	–	< 40	< 40	–
O=C(CSc1ccccc1)Nc1cc(NC(=O)Nc2ccc(Cl)c(C(F)(F)F)c2)cc(C(F)(F)F)c1 [Compound 120]	10 to 50	< 40	< 40	IC50 [4]: > 50 µM
COc1cc(NC(=O)CNc2ccc(Cl)c(C(F)(F)F)c2)cc(C(F)(F)F)c1 [Compound 128]	> 50	< 40	< 40	–

SMILES	IC50 [1] [µM]	MIC [2, 6] [µM]	MIC [3, 7] [µM]	further results
O=C(Nc1cc(N2CCNC2=O)cc(C(F)(F)F)c1)Nc1ccc(Cl)c(C(F)(F)F)c1 [Compound 127]	10 to 50	> 125	> 125	–
ON=C(Nc1cccc(Oc2ccccc2)c1)c1cccc(C(F)(F)F)c1 [R′=3-CF3, R″=H, R′″=3-OPh]	–	–	–	pIC50 [4]: < 4.30; MIC [5]: < 40 µM; MIC [2, 8]: < 40 µM; MIC [3, 9]: < 40 µM
C=CCOc1cc(NC(=O)Nc2ccc(Cl)c(C(F)(F)F)c2)cc(C(F)(F)F)c1 [Compound 134]	< 10	–	> 125	MIC ([2]; read-out: MIC (μM) S. aureus): < 40 µM
ON=C(Nc1cccc(Cl)c1)c1ccc(NCCc2ccc(O)cc2)c(C(F)(F)F)c1 [Compound 113]	–	< 40	< 40	IC50 [4]: 10 to 50 µM
CON=C1CCN(c2ccc(C(=NO)Nc3cccc(Cl)c3)cc2C(F)(F)F)C1 [Compound 110]	–	40 to 125 (≈ 17.1 to 53.4 µg/mL)	> 125	IC50 [4]: > 50 µM; pIC50 [1]: < 4.30
O=C(Nc1cc(OCc2cccc(Cl)c2)cc(C(F)(F)F)c1)Nc1ccc(Cl)c(C(F)(F)F)c1 [Compound 135]	10 to 50	–	> 125	–
Nc1cc(NC(=O)Nc2ccc(Cl)c(C(F)(F)F)c2)cc(C(F)(F)F)c1 [Compound 118]	> 50	< 40	< 40	–
OCCNc1ccc(C(=NO)Nc2cccc(Cl)c2)cc1C(F)(F)F [Compound 111]	–	> 125	< 40	IC50 [4]: 10 to 50 µM
COCC1CCCN1c1cc(NC(=O)Nc2ccc(Cl)c(C(F)(F)F)c2)cc(C(F)(F)F)c1 (centres unmarked) [Compound 124]	10 to 50	< 40	> 125	–
O=C(Nc1cc(N2CCOC2=O)cc(C(F)(F)F)c1)Nc1ccc(Cl)c(C(F)(F)F)c1 [Compound 126]	< 10	> 125	< 40	–
O=C(CNc1ccc(N2CCCCC2)c(C(F)(F)F)c1)Nc1cc(COc2cccc(Cl)c2)cc(C(F)(F)F)c1 [Compound 136, N-[3-(3-Chloro-phenoxymethyl)-5-trifluoromethyl-phenyl]-2-(4-piperidin-1-yl-3-trifluoromethyl-phenylamino)-acetamide]	< 10	< 40	> 125	–
O=C(CNc1cccc(Cl)c1)Nc1cc(NC(=O)CNc2cccc(Cl)c2)cc(C(F)(F)F)c1 [Compound 140, 2-(3-Chloro-phenylamino)-N-{3-[2-(3-chloro-phenylamino)-acetylamino]-5-trifluoromethyl-phenyl}acetamide]	–	< 40	> 125	–
O=C(CSc1ccccc1)Nc1cc(COC(=O)Nc2ccc(Cl)c(C(F)(F)F)c2)cc(C(F)(F)F)c1 [Compound 139, (4-Chloro-3-trifluoromethyl-phenyl)-carbamic acid 3-(2-phenylsulfanyl-acetylamino)-5-trifluoromethyl benzyl ester]	10 to 50	< 40	< 40	–
O=C(COc1ccc(Cl)cc1)Nc1cc(NCCNc2nc3cc(Cl)c(Cl)cc3[nH]2)cc(C(F)(F)F)c1 [Compound 131]	< 10	< 40	> 125	–
COCC1CCCN1c1cc(NC(=O)CNc2ccc(Cl)c(C(F)(F)F)c2)cc(C(F)(F)F)c1 (centres unmarked) [Compound 129]	> 50	< 40	> 125	–
NS(=O)(=O)c1ccc(CCNc2ccc(C(=NO)Nc3cccc(Cl)c3)cc2C(F)(F)F)cc1 [Compound 114]	–	< 40	< 40	IC50 [4]: < 10 µM; pIC50 [1]: < 4.30
O=C(Nc1cc(NS(=O)(=O)c2ccc(C(F)(F)F)cc2)cc(C(F)(F)F)c1)Nc1ccc(Cl)c(C(F)(F)F)c1 [Compound 122]	10 to 50	< 40	> 125	–
O=C(Nc1cc(O)cc(C(F)(F)F)c1)Nc1ccc(Cl)c(C(F)(F)F)c1 [Compound 133, 1-(4-Chloro-3-trifluoromethyl-phenyl)-3-(3-hydroxy-5-trifluoromethyl-phenyl)-urea]	10 to 50	< 40	< 40	–

Reference: patent publication US7053234B2 (Amgen Inc., priority 2000, dated 2006)
